Molecules are shown by their SMILES. Like-named read-outs stand apart in the source and are kept apart here.

For orientation: ED50 means the dose that gives a 50% effect, or the effect in half of the subjects.

One data set deals with NMRI male mice. The data set is described as follows: Methylphenidate antagonism in mice. Type of data set: in vivo. The note with it: mice, i.p.; for ED50: Mus musculus, ip. The method, then: 1. As animals were used NMRI male mice weighing 18-25 grams.
3 × 2 or 5 × 2 mice are used for each dose level. Thirty minutes, 1 hour, 2 hours, 3 hours etc. after i.p. injection of test substance, methylphenidate, 60 mg/kg, is injected s.c. At each time interval separate groups of mice were used. After administration of methylphenidate the mice are placed in the observation cages, 2 in each cage, where they remain for 1 hour. The cages are placed on corrugated paper, the corrugations facing upwards. It is examined whether or not the mice have been biting the corrugated paper. […] The peak effect was determined for the test substances and also for a number of known neuroleptics.

Data set [1] is described as follows: Catalepsy-inducing effect in rats. Format: in vivo, male Wistar rats. The note with it: rat, in vivo, sc. The method, then:
(§1) Reference is made to L. Juluo: "On the Interaction between Neuroleptics and Antiparkinson Drugs." Modern Problems of Pharmacopsychiatry, vol. 5, pg, 50-54. The test may be described as follows:
(§2) Five animals are used at each dose level.
(§3) The test compound is injected subcutaneously (s.c.)
(§4) Injection volume is 5 ml of the vehicle/kg b.w.
(§5) Except when otherwise stated saline is used as vehicle.
(§6) The animals are placed in the middle of a vertical wire netting (50 cm/49 cm) 60, 120, 180, 240, 300 and 360 minutes after injection of the test compound.
(§7) The animals are considered cataleptic when they remain immobile during a period of 15 seconds. This cataleptic reaction is designated: + (plus). Untreated animals climb normally up and down the wire netting. The absence of catalepsy is designated: - (minus). The results are expressed as fractions as follows: 0/5, 1/5, 2/5, 3/5, 4/5 and 5/5 in which 0, 1, 2, 3,4 and 5 represent the number of cataleptic animals out of five animals tested.

The next data set deals with male Wistar rats. The data set is described as follows: Catalepsy-inducing effect in rats. Type of data set: in vivo. The note with it: catalepsy (rats) / methylphenidate antagonism peak effect (mice). The method, then: as §1, §2, §3, §4, §5, §6, §7
The conditions of data set [2]: pure α-isomers of known neuroleptics; cited from earlier work.
The next data set relates to rats. Put plainly: Antagonism of amphetamine-induced stereotyped behaviour in rats. Type of data set: in vivo. The note with it: oral; for ED50: Rattus norvegicus. The method, then: The modification used by us was as follows:
The animals were then placed in individual cages. […] The absence of stereotypy was interpreted as a drug effect. ED50 values for protection against stereotypy were determined. All compounds were tested at a minimum of three dose levels using 10 rats per dose, and the observer was kept unaware of the identity of the groups until after the experiment.

Data set [3] is described as follows: Pharmacological tests (test not specified). The note with it: in vivo; listed as Example 12 alpha-isomer.
The subject of data set [4] is adult purebred Beagle dogs. Put plainly: Apomorphine antagonism in dogs. The note with it: ordinary doses, prolonged treatment. Format: in vivo.
[5] abbreviates: 24 h after injection, read-out: Methylphenidate antagonism ED50, 24 h.
Where [6] appears, read: peak effect, methylphenidate 60 mg/kg s.c., read-out: Methylphenidate antagonism, peak effect ED50.

As for `OCCN1CCN(CC/C=C2/c3ccccc3Sc3ccc(Cl)cc32)CC1` [α-Clopenthixol, reference compound], the ED50 in the data set with NMRI male mice (setting [5]) was > 40 mg/kg; with NMRI male mice (setting [6]), 0.7 mg/kg; in data set [1] it was 0.45 mg/kg. For the same compound, the “duration of peak effect” value in the data set with NMRI male mice turned out to be 5 h. Further, in the data set on male Wistar rats, the “Ratio Cat./Meth (catalepsy/methylphenidate antagonism)” value is 0.7. Moreover, the “activity of the α-isomer relative to the β-isomer (in words)” value in data set [2] is reported as “most active isomers”.
Regarding `OCCN1CCN(CC/C=C2/c3ccccc3Sc3ccc(C(F)(F)F)cc32)CC1` [α-Flupenthixol, reference compound], the ED50 with NMRI male mice (setting [5]) worked out at 17 mg/kg; in the data set with NMRI male mice (setting [6]), 0.07 mg/kg; in data set [1], 0.12 mg/kg. In the data set on NMRI male mice, the “duration of peak effect” value stood at 6 h. In addition, the “Ratio Cat./Meth (catalepsy/methylphenidate antagonism)” value in the data set with male Wistar rats came out at 1.74. Also, the “activity of the α-isomer relative to the β-isomer (in words)” value in data set [2] was “most active isomers”.
For `OCCC1CCN(CCC=C2c3ccc(F)cc3Sc3ccc(C(F)(F)F)cc32)CC1` [Substance 13, alpha-isomer of 2-trifluoromethyl-6-fluoro-9-(3-(4-(2-hydroxyethyl)-1-piperidyl)propylidene)-thiaxanthene], the median effective dose (ED50) amounted to 0.04 mg/kg with rats (24 hours after administration, read-out: ED50 for protection against stereotypy, peak effect (24 hours)); 0.2 mg/kg with rats (48 h, read-out: ED50 for protection against stereotypy, 48 h); 0.9 mg/kg with rats (72 h, read-out: ED50 for protection against stereotypy, 72 h); 2.3 mg/kg in the data set with rats (96 h, read-out: ED50 for protection against stereotypy, 96 h). In addition, the “time of peak effect, amphetamine antagonism” value with rats is 24 h. The “amphetamine antagonistic effect 4 days after administration (in words)” value in the data set on rats (4 days) is reported as “rather weak”. Besides, in data set [3], the “pharmacological activity of the isomer (in words)” value is given as “pharmacologically active”. For the same compound, the “feed intake and survival” value in data set [4] is recorded as “did not take feed to a sufficient degree and, accordingly tended to die by starvation”.
Regarding `CN1CCN(CC/C=C2/c3ccccc3Sc3ccc(S(=O)(=O)N(C)C)cc32)CC1` [Thiothixene, reference compound], the ED50 is > 40 mg/kg in the data set on NMRI male mice (setting [5]), 0.4 mg/kg in the data set on NMRI male mice (setting [6]) and 0.06 mg/kg in data set [1]. The “Ratio Cat./Meth (catalepsy/methylphenidate antagonism)” value with male Wistar rats came to 0.14. Also, in data set [2], the “activity of the α-isomer relative to the β-isomer (in words)” value was “most active isomers”.

Source of the values: patent US4042695A, “Thiaxanthene derivatives, compositions thereof and methods of treating therewith” (priority 1972, dated 1977).
